In brackets after ≈: the same amount, converted by molar mass.
What was measured:
Streptococcus pneumoniae = assay: Antimicrobial activity against Streptococcus pneumoniae; assay type: functional
Staphylococcus aureus = assay: Antimicrobial activity against methicillin-susceptible Staphylococcus aureus; assay type: functional
Haemophilus influenzae = assay: Antimicrobial activity against Haemophilus influenzae; assay type: functional
Klebsiella pneumoniae = assay: Antimicrobial activity against Klebsiella pneumoniae; assay type: functional
Pseudomonas aeruginosa = assay: Antimicrobial activity against Pseudomonas aeruginosa; assay type: functional
Homo sapiens [1] = species: Homo sapiens; assay: fCmax in patient with lower respiratory tract infection; assay type: ADME, organism-based; conditions: in vivo
Homo sapiens [2] = species: Homo sapiens; assay: fCmin in patient with lower respiratory tract infection; assay type: ADME, organism-based; conditions: in vivo
Homo sapiens [3] = species: Homo sapiens; assay: fAUC in patient with lower respiratory tract infection; assay type: ADME, organism-based; conditions: in vivo
Homo sapiens [4] = species: Homo sapiens; assay: ft>MIC in patient with lower respiratory tract infection; assay type: ADME, organism-based; conditions: in vivo
[5] = Ratio of fCmax to MIC in patient with lower respiratory tract infection; assay type: ADME; conditions: human
[6] = Ratio of fCmin to MIC in patient with lower respiratory tract infection; assay type: ADME; conditions: human
[7] = Ratio of fAUC to MIC in patient with lower respiratory tract infection; assay type: ADME; conditions: human

Which results are given for `C[C@@H](O)[C@H]1C(=O)N2C(C(=O)O)=C(S[C@@H]3CN[C@H](C(=O)N(C)C)C3)[C@H](C)[C@H]12` [MEROPENEM]?
MIC (Streptococcus pneumoniae): 0.06 µg/mL (≈ 0.156 µM); MIC (Staphylococcus aureus): 0.06 µg/mL (≈ 0.156 µM); MIC (Haemophilus influenzae): 0.06 µg/mL (≈ 0.156 µM); MIC (Klebsiella pneumoniae): 0.06 µg/mL (≈ 0.156 µM); MIC (Pseudomonas aeruginosa): 0.06 µg/mL (≈ 0.156 µM); fCmax (Homo sapiens [1]): 32.27 µg/mL; fCmin (Homo sapiens [2]): 0.91 µg/mL; fAUC (Homo sapiens [3]): 157.43 µg·h/mL; fT>MIC (Homo sapiens [4]): 91%; Ratio [5]: 1427.66; Ratio [6]: 34.24; Ratio [7]: 6683.38
